Experimental data: US20180000085A1, “USE OF PICOLINAMIDE COMPOUNDS WITH FUNGICIDAL ACTIVITY” (DOW AGROSCIENCES LLC, priority 2014, published 2018)

Experiments:
Zymoseptoria tritici = experiment: Leaf blotch of wheat (SEPTTR) disease control on wheat seedlings; type: in vivo; set-up: key to SEPTTR 1DP, HV activity at 100 ppm (% control rating) / SEPTTR 3DC, HV activity at 100 ppm (% control rating) / SEPTTR disease control, 1DP / SEPTTR disease control, 3DC / SEPTTR 1DP disease control rating, HV activity / SEPTTR 3DC disease control rating, HV activity / SEPTTR 3DC, LV activity at 125.1 g/H (% Control rating) / SEPTTR 1DP, LV activity at 125.1 g/H (% Control rating) / SEPTTR 1DP disease control rating, LV activity at 125.1 g/H / SEPTTR 3DC disease control rating, LV activity at 125.1 g/H / SEPTTR 3DC disease control rating, HV activity at 100 ppm / SEPTTR 1DP disease control rating, HV activity at 100 ppm / HV activity at 100 ppm SEPTTR 3DC (disease control rating) / HV activity at 100 ppm SEPTTR 1DP (disease control rating) / LV activity at 125.1 g/H SEPTTR 1DP (disease control rating) / LV activity at 125.1 g/H SEPTTR 3DC (disease control rating): A: > 80; B: ≤ 80; C: Not Tested; D: No Activity Observed in the Reported Assay; details: for LV activity at 125.1 g/H SEPTTR 1DP (disease control rating) / LV activity at 125.1 g/H SEPTTR 3DC (disease control rating) / SEPTTR 1DP disease control rating, HV activity / SEPTTR 3DC disease control rating, HV activity: wheat leaf blotch; for SEPTTR 1DP disease control rating, HV activity / SEPTTR 3DC disease control rating, HV activity: HV application at 100 ppm
Puccinia triticina = experiment: Wheat brown rust (PUCCRT) disease control on wheat seedlings; type: in vivo; set-up: key to PUCCRT 3DC, HV activity at 100 ppm (% control rating) / PUCCRT disease control, 3DC / PUCCRT 1DP disease control rating, HV activity / PUCCRT 3DC disease control rating, HV activity / PUCCRT 3DC, LV activity at 125.1 g/H (% Control rating) / PUCCRT 1DP, LV activity at 125.1 g/H (% Control rating) / PUCCRT 3DC disease control rating, LV activity at 125.1 g/H / PUCCRT 1DP disease control rating, LV activity at 125.1 g/H / PUCCRT 3DC disease control rating, HV activity at 100 ppm / PUCCRT 1DP disease control rating, HV activity at 100 ppm / HV activity at 100 ppm PUCCRT 3DC (disease control rating) / LV activity at 125.1 g/H PUCCRT 1DP (disease control rating) / LV activity at 125.1 g/H PUCCRT 3DC (disease control rating): A: > 80; B: ≤ 80; C: Not Tested; D: No Activity Observed in the Reported Assay; details: for LV activity at 125.1 g/H PUCCRT 1DP (disease control rating) / LV activity at 125.1 g/H PUCCRT 3DC (disease control rating) / PUCCRT 1DP disease control rating, HV activity / PUCCRT 3DC disease control rating, HV activity: wheat brown rust; for PUCCRT 1DP disease control rating, HV activity / PUCCRT 3DC disease control rating, HV activity: HV application at 100 ppm
[1] = low volume application, 125.1 g/H, 1 Day Protectant
[2] = low volume application, 125.1 g/H, 3 Day Curative
[3] = high volume application, 100 ppm, 1 day protectant
[4] = high volume application, 100 ppm, 3 day curative

SMILES	LV activity at 125.1 g/H SEPTTR 1DP (disease control rating) (Zymoseptoria tritici; [1])	LV activity at 125.1 g/H SEPTTR 3DC (disease control rating) (Zymoseptoria tritici; [2])	LV activity at 125.1 g/H PUCCRT 1DP (disease control rating) (Puccinia triticina; [1])	LV activity at 125.1 g/H PUCCRT 3DC (disease control rating) (Puccinia triticina; [2])	SEPTTR 1DP disease control rating, HV activity (Zymoseptoria tritici; 1 Day Protectant)	SEPTTR 3DC disease control rating, HV activity (Zymoseptoria tritici; 3 Day Curative)	PUCCRT 1DP disease control rating, HV activity (Puccinia triticina; 1 Day Protectant)	PUCCRT 3DC disease control rating, HV activity (Puccinia triticina; 3 Day Curative)	also measured
CCC[C@@H](Oc1ccc(C)cc1)[C@H](C)OC(=O)[C@H](C)NC(=O)c1nccc(OC)c1OC(C)=O [Cmpd 1060]	B (≤ 80)	B (≤ 80)	A (> 80)	A (> 80)					
CC(=O)OCOc1c(Br)ccnc1C(=O)N[C@@H](C)C(=O)O[C@@H](C)[C@H](Oc1ccccc1)C(C)C [Cmpd 1086]	D	D	B (≤ 80)	D					
C=CC[C@@H](Oc1ccc(C(F)(F)F)cc1)[C@H](C)OC(=O)[C@H](C)NC(=O)c1nccc(OC)c1O [Cmpd 1020]									SEPTTR 1DP disease control rating, HV activity at 100 ppm (Zymoseptoria tritici; [3]): B (≤ 80); SEPTTR 3DC disease control rating, HV activity at 100 ppm (Zymoseptoria tritici; [4]): B (≤ 80); PUCCRT 1DP disease control rating, HV activity at 100 ppm (Puccinia triticina; [3]): A (> 80); PUCCRT 3DC disease control rating, HV activity at 100 ppm (Puccinia triticina; [4]): A (> 80)
COc1ccnc(C(=O)NC(C)C(=O)OC(C)C(Oc2ccccc2)c2cccs2)c1O (centres unmarked) [Cmpd 436]					A (> 80)	B (≤ 80)	B (≤ 80)	B (≤ 80)	
CCCO[C@@H]([C@H](C)OC(=O)[C@H](C)NC(=O)c1nccc(OC)c1OC(C)=O)[C@H](CC)Oc1ccccc1 [Cmpd 511]									SEPTTR 1DP, LV activity at 125.1 g/H (% Control rating) (Zymoseptoria tritici; [1]): B (≤ 80); SEPTTR 3DC, LV activity at 125.1 g/H (% Control rating) (Zymoseptoria tritici; [2]): A (> 80); PUCCRT 1DP, LV activity at 125.1 g/H (% Control rating) (Puccinia triticina; [1]): A (> 80); PUCCRT 3DC, LV activity at 125.1 g/H (% Control rating) (Puccinia triticina; [2]): A (> 80)
CC[C@@H](CCOC)[C@@H](Oc1ccccc1)[C@H](C)OC(=O)[C@@H](C)NC(=O)c1nccc(OC)c1O [Cmpd 308]					D	B (≤ 80)	D	D	
CCC(CC)C(Oc1ccccc1Cl)C(C)OC(=O)C(C)NC(=O)c1nccc(OC)c1O (centres unmarked) [Cmpd 384]					B (≤ 80)	A (> 80)	A (> 80)	A (> 80)	
C=CC[C@@H](Oc1cccc(Cl)c1)[C@H](C)OC(=O)[C@H](C)NC(=O)c1nccc(OC)c1OCOC(C)=O [Cmpd 1083]	B (≤ 80)	A (> 80)	A (> 80)	A (> 80)					
